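Assay format: 96-well plates, 48-hour exposure. GI50 = concentration required for 50% inhibition of growth.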 Calls of active or inactive are those of the source. No stated cut-off is given here; in the data, active = GI50 up to about 1.1 µM and inactive = higher.
Columns and labels:
Experiment in all cases: inhibition of tumour cell growth, NCI panel, 48 h
[1] = tested on: 786-0
[2] = tested on: A549
[3] = tested on: ACHN
[4] = tested on: CAKI-1
[5] = tested on: CCRF-CEM
[6] = tested on: COLO 205
[7] = tested on: DLD-1
[8] = tested on: DMS-114
[9] = tested on: EKVX
[10] = tested on: HCT-116
[11] = tested on: HCT-15
[12] = tested on: HL-60
[13] = tested on: HOP-62
[14] = tested on: HOP-92
[15] = tested on: HT-29
[16] = tested on: IGROV-1
[17] = tested on: K562
[18] = tested on: KM-20L2
[19] = tested on: KM12
[20] = tested on: LOX IMVI
[21] = tested on: LXFL 529
[22] = tested on: M14
[23] = tested on: M19-MEL
[24] = tested on: MOLT-4
[25] = tested on: Malme-3M
[26] = tested on: NCI-H226
[27] = tested on: NCI-H23
[28] = tested on: NCI-H460
[29] = tested on: NCI-H522
[30] = tested on: OVCAR-3
[31] = tested on: OVCAR-4
[32] = tested on: OVCAR-5
[33] = tested on: OVCAR-8
[34] = tested on: RPMI-8226
[35] = tested on: SF-268
[36] = tested on: SF-295
[37] = tested on: SF-539
[38] = tested on: SK-MEL-28
[39] = tested on: SK-MEL-2
[40] = tested on: SK-MEL-5
[41] = tested on: SK-OV-3
[42] = tested on: SN12C
[43] = tested on: SNB-19
[44] = tested on: SNB-75
[45] = tested on: SNB-78
[46] = tested on: SR
[47] = tested on: SW-620
[48] = tested on: TK-10
[49] = tested on: U-251
[50] = tested on: UACC-257
[51] = tested on: UACC-62
[52] = tested on: UO-31
[53] = tested on: XF498
[54] = tested on: A498
[55] = tested on: DMS-273
[56] = tested on: HCC 2998
[57] = tested on: RXF 393

With `O=[N+]([O-])c1nccn1COCCF` the GI50 [1] was > 100 µM (inactive), the GI50 [2] was > 100 µM (inactive) and the GI50 [3] was > 100 µM (inactive). The GI50 [4] was > 100 µM (inactive), the GI50 [5] was > 100 µM (inactive) and the GI50 [6] was > 100 µM (inactive). The GI50 [7] was > 100 µM (inactive), the GI50 [8] was > 100 µM (inactive) and the GI50 [9] was > 100 µM (inactive). For the same compound, the GI50 [10] was > 100 µM (inactive), the GI50 [11] was greater than 100 µM and the GI50 [12] was > 100 µM (inactive). The GI50 [13] was > 100 µM (inactive), the GI50 [14] was > 100 µM (inactive) and the GI50 [15] was > 100 µM (inactive). For the same compound, the GI50 [16] was > 100 µM (inactive), the GI50 [17] was > 100 µM (inactive) and the GI50 [18] was > 100 µM (inactive). For the same compound, the GI50 [19] was > 100 µM (inactive), the GI50 [20] was > 100 µM (inactive) and the GI50 [21] was > 100 µM (inactive). The GI50 [22] was > 100 µM (inactive), the GI50 [23] was > 100 µM (inactive) and the GI50 [24] was > 100 µM (inactive). The GI50 [25] was > 100 µM (inactive), the GI50 [26] was > 100 µM (inactive) and the GI50 [27] was > 100 µM (inactive). The GI50 [28] was > 100 µM (inactive), the GI50 [29] was > 100 µM (inactive) and the GI50 [30] was > 100 µM (inactive). The GI50 [31] was > 100 µM (inactive), the GI50 [32] was > 100 µM (inactive) and the GI50 [33] was > 100 µM (inactive). The GI50 [34] was > 100 µM (inactive), the GI50 [35] was > 100 µM (inactive) and the GI50 [36] was > 100 µM (inactive). For the same compound, the GI50 [37] was > 100 µM (inactive), the GI50 [38] was > 100 µM (inactive) and the GI50 [39] was > 100 µM (inactive). The GI50 [40] was > 100 µM (inactive), the GI50 [41] was > 100 µM (inactive) and the GI50 [42] was > 100 µM (inactive). The GI50 [43] was > 100 µM (inactive), the GI50 [44] was 64.6 µM (inactive) and the GI50 [45] was > 100 µM (inactive). For the same compound, the GI50 [46] was > 100 µM (inactive), the GI50 [47] was > 100 µM (inactive) and the GI50 [48] was > 100 µM (inactive). For the same compound, the GI50 [49] was > 100 µM (inactive), the GI50 [50] was > 100 µM (inactive) and the GI50 [51] was > 100 µM (inactive). For the same compound, the GI50 [52] was > 100 µM (inactive) and the GI50 [53] was > 100 µM (inactive).
`CCOC(=O)C(=O)Nc1c(CC)cccc1C(C)C` was tested, and the GI50 [1] was > 100 µM (inactive), the GI50 [54] was > 100 µM (inactive) and the GI50 [2] was > 100 µM (inactive). For the same compound, the GI50 [3] was > 100 µM (inactive), the GI50 [4] was > 100 µM (inactive) and the GI50 [6] was > 100 µM (inactive). The GI50 [7] was > 100 µM (inactive), the GI50 [55] was > 100 µM (inactive) and the GI50 [9] was > 100 µM (inactive). For the same compound, the GI50 [56] was > 100 µM (inactive), the GI50 [10] was > 100 µM (inactive) and the GI50 [11] was greater than 100 µM. The GI50 [13] was > 100 µM (inactive), the GI50 [14] was > 100 µM (inactive) and the GI50 [15] was > 100 µM (inactive). For the same compound, the GI50 [16] was > 100 µM (inactive), the GI50 [18] was > 100 µM (inactive) and the GI50 [19] was > 100 µM (inactive). For the same compound, the GI50 [20] was > 100 µM (inactive), the GI50 [21] was > 100 µM (inactive) and the GI50 [22] was > 100 µM (inactive). For the same compound, the GI50 [23] was > 100 µM (inactive), the GI50 [25] was > 100 µM (inactive) and the GI50 [26] was > 100 µM (inactive). The GI50 [27] was > 100 µM (inactive), the GI50 [28] was > 100 µM (inactive) and the GI50 [30] was > 100 µM (inactive). The GI50 [31] was > 100 µM (inactive), the GI50 [32] was > 100 µM (inactive) and the GI50 [33] was > 100 µM (inactive). For the same compound, the GI50 [34] was > 100 µM (inactive), the GI50 [57] was > 100 µM (inactive) and the GI50 [35] was > 100 µM (inactive). The GI50 [36] was > 100 µM (inactive), the GI50 [37] was > 100 µM (inactive) and the GI50 [38] was > 100 µM (inactive). For the same compound, the GI50 [39] was > 100 µM (inactive), the GI50 [41] was > 100 µM (inactive) and the GI50 [42] was > 100 µM (inactive). For the same compound, the GI50 [43] was > 100 µM (inactive), the GI50 [44] was > 100 µM (inactive) and the GI50 [45] was > 100 µM (inactive). The GI50 [46] was 0.0151 µM (active), the GI50 [47] was > 100 µM (inactive) and the GI50 [48] was > 100 µM (inactive). The GI50 [49] was > 100 µM (inactive), the GI50 [50] was > 100 µM (inactive) and the GI50 [51] was > 100 µM (inactive). The GI50 [52] was > 100 µM (inactive) and the GI50 [53] was > 100 µM (inactive).

— ChEMBL document CHEMBL1201862, “PubChem BioAssay data set” (2004)
